Reference: patent US20100178652A1, “Materials and Methods for the Detection, Prevention and Treatment of Autoimmune Disease” (priority 2007, published 2010)

Key:
[1] = tested on: STAT5 phosphorylation; assay: Persistence of STAT5 phosphorylation in mature myeloid cells when GM-CSF signaling is blocked; assay type: cell-based, NOD mouse; conditions: NOD mature myeloid cells, once activated; inhibition of GM-CSF signaling
Source text: Flow cytometric analysis of fluorescently-conjugated antibody surface and intracellular binding will be used to phenotypically identify myeloid cells and quantify the level of STAT5 tyrosine phosphorylation in cells ex vivo and after in vitro stimulation. Cells will be first labeled with anti-CD11b and anti-IgM antibody conjugates to identify monocytes and macrophages (CD11b+/IgM−) in the sample, then fixed with 2% (v/v Cf) formaldehyde and permeabilized using 0.5% saponin in a high protein, isotonic buffer. Intracellular staining of STAT5Ptyr will be done using APC-conjugated anti-STAT5Ptyr specific monoclonal antibodies (Upstate Biotech, conjugated using Prozyme APC-labeling kit). This method is well developed in our laboratory and has shown good consistency in current studies. We will analyze the percentage of positive myeloid cells (% STATPtyr+/CD11b+) as well as mean fluorescence (MF) to assess both the number of cells in the myeloid population with activated STAT5 and the relative amount of phosphorylated STAT5 per cells after treatment. After flow analysis, the labeled cells are centrifuged onto slides and stain them for chromatin (DAPI, Molecular Probes). These cells were used for imaging by deconvolution microscopy as previously described and then used 3 dimensional projection rotational analysis to identify subcellular location of activated STAT5.

[2] = tested on: STAT5 phosphorylation; conditions: mature monocytes and macrophages; blocking GM-CSF signaling; ref [20]; cited from earlier work

In the case of N#C/C(=C/c1ccc(O)c(O)c1)C(=O)NCc1ccccc1 [AG490], the “persistence of STAT5 phosphorylation” value [1] is given as “not affected” and the “persistence of phosphorylated STAT5” value [2] is given as “does not affect”.
